Data from patent US20040091960A1, “Novel physiologically active peptides and use thereof” (priority 2000, published 2004).

System: LH secretion
Experiment: LH secretion promoting action (LH blood level)
Assay type: in vivo
Settings: statement only, no experiment described

For “polypeptide of the present invention: mouse matured GALR2 ligand, amino acid sequence SEQ ID NO: 1, ligand peptide for galanin receptor (APAHRGRGGWTLNSAGYLLGPVLPVSSKADQGRKRDSALEILDLWKIIDGLPYSHSPRMT; Mouse)”, the “LH secretion promoting action (LH blood level increasing action)” value was “specific LH blood level increasing action”.
